Assay results published in ChEMBL document CHEMBL1143219, “Proline bis-amides as potent dual orexin receptor antagonists” (Bioorg Med Chem Lett, 2008).

How the values were obtained:
Orexin receptor type 2 = biological target: T1, Orexin receptor type 2 (Homo sapiens, UniProt O43614); assay: Displacement of [3H](S)-N-(2-(1H-pyrrol-1-yl)phenyl)-1-(2-(1-methyl-1H-benzo[d]imidazol-2-ylthio)acetyl)pyrrolidine-2-carboxamide from human OX2R expressed in CHO cells; assay type: cell-based
T1 sequence (O43614 whole entry): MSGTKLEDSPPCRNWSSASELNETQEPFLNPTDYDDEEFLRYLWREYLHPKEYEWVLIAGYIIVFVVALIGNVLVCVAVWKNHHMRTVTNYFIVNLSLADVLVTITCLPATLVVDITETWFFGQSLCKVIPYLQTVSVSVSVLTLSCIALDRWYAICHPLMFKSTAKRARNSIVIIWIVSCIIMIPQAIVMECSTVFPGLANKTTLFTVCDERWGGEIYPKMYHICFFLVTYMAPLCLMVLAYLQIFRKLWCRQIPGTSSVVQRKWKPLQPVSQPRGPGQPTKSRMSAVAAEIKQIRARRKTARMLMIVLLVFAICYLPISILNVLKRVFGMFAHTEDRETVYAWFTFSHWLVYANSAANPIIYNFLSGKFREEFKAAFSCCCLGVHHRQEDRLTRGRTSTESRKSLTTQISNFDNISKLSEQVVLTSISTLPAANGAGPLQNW

[1] = biological target: T2, Orexin receptor type 2 (Homo sapiens) (UniProt O43614); assay: Antagonist activity at human OX2R expressed in CHOK1 cells assessed as effect on calcium mobilization; assay type: functional, cell-based; conditions: CHO-K1
T2 sequence (whole entry): T1 sequence (O43614 whole entry)

[2] = biological target: T3, Orexin/Hypocretin receptor type 1 (Homo sapiens, UniProt O43613); assay: Displacement of [3H](S)-1-[2-(1-methyl-1H-benzoimidazol-2-ylsulfanyl)-acetyl]-pyrrolidine-2-carboxylic acid biphenyl-2-ylamide from human OX1R expressed in CHO cells; assay type: cell-based
T3 sequence (O43613 whole entry): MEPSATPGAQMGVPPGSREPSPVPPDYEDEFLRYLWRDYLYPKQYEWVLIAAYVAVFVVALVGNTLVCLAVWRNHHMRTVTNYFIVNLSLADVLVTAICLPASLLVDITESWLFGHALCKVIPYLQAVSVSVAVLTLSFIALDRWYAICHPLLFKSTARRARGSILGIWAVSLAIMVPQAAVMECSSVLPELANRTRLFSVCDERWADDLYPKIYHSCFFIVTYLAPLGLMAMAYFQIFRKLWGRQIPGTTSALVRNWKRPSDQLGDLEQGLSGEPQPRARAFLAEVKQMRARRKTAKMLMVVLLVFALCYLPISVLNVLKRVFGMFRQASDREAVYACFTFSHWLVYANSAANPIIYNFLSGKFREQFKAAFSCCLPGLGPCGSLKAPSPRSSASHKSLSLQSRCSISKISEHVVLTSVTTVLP

[3] = Oral bioavailability in rat; assay type: ADME, organism-based; conditions: in vivo
[4] = Drug level in rat brain at 100 mg/kg, ip after 30 mins; assay type: ADME, organism-based; parameters: dose 100 mg/kg, route intraperitoneal; conditions: read-out: Drug uptake
[5] = Drug level in rat plasma at 100 mg/kg, ip after 30 mins; assay type: ADME, organism-based; parameters: dose 100 mg/kg, route intraperitoneal
[6] = Drug level in rat cerebrospinal fluid at 100 mg/kg, ip after 30 mins; assay type: ADME, organism-based; parameters: dose 100 mg/kg, route intraperitoneal; conditions: read-out: Drug uptake
[7] = biological target: Synaptic vesicular amine transporter (Homo sapiens) (UniProt Q05940); assay: Inhibition of monoamine transporter
[8] = Inhibition of prostanoid receptor
[9] = biological target: T4, Thromboxane A2 receptor (Homo sapiens) (UniProt P21731); assay: Inhibition of thromboxane A2 receptor
T4 sequence (whole entry): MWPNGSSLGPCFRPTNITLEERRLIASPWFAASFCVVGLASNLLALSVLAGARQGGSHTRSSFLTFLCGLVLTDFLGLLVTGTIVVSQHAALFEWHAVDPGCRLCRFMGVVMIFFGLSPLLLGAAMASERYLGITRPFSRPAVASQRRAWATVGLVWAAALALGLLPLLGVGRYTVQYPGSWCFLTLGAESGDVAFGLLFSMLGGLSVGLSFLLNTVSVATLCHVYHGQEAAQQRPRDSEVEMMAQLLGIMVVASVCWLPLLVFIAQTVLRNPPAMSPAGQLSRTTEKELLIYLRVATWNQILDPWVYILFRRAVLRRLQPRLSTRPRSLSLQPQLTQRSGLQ

Rattus norvegicus = assay: Inhibition of ADL-orexin-B-induced increase in locomotion activity in ip dosed rat; assay type: functional, organism-based
[10] = Partition coefficient, log P of the compound; assay type: physicochemical; conditions: octanol/water
[11] = Clearance in rat; assay type: ADME, organism-based; conditions: in vivo
[12] = Half life in rat; assay type: ADME, organism-based; conditions: in vivo
[13] = biological target: T5, Orexin/Hypocretin receptor type 1 (Rattus norvegicus) (UniProt P56718); assay: Antagonist activity at rat OX1R assessed as effect on calcium mobilization; assay type: functional
T5 sequence (whole entry): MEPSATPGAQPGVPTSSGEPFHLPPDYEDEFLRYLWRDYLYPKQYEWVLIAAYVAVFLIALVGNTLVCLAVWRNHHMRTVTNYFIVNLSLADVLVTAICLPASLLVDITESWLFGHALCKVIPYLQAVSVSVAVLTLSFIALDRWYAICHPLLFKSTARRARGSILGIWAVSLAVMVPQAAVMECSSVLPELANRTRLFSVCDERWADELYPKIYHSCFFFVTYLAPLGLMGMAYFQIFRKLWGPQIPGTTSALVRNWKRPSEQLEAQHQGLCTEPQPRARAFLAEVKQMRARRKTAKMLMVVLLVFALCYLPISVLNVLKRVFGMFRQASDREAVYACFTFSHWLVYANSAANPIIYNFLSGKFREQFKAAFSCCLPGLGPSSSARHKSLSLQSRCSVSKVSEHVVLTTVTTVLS

[14] = biological target: T6, Thyrotropin-releasing hormone receptor (Homo sapiens) (UniProt P34981); assay: Inhibition of TRH receptor
T6 sequence (whole entry): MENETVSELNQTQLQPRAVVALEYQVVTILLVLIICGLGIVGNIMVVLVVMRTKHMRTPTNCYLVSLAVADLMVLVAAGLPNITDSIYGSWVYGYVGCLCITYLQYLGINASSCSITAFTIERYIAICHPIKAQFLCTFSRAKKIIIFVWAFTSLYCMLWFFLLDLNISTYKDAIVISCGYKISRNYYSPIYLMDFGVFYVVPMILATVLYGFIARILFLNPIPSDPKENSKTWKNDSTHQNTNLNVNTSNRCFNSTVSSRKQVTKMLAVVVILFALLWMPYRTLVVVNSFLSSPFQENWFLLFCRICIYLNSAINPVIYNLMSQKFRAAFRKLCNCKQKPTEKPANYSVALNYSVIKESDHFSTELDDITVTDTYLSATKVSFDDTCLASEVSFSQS

[15] = Inhibition of sodium channel at site 2

Synaptic vesicular amine transporter (Homo sapiens), sequence (Q05940 whole entry): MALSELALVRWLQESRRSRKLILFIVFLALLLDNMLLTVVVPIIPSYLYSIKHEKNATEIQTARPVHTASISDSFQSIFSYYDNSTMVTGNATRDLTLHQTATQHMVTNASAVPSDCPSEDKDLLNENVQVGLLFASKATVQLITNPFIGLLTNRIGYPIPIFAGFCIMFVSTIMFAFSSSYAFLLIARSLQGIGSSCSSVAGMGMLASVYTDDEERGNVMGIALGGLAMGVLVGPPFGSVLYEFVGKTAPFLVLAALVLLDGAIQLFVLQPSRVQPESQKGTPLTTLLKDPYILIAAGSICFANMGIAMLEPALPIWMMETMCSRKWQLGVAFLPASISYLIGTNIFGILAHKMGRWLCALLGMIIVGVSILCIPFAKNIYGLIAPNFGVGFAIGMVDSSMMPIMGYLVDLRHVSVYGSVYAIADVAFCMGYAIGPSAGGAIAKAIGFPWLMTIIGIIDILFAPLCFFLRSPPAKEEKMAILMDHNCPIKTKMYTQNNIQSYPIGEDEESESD

## O=C(Nc1ccccc1-c1ccccc1)[C@@H]1CCCN1C(=O)CCc1nc2ccccc2[nH]1
Orexin receptor type 2
  Ki: 6 nM
[1]
  Activity: 20 nM
[2]
  Ki: 40 nM

## Cc1ccc2nc(SCC(=O)N3CCC[C@H]3C(=O)Nc3ccccc3-n3cccc3)[nH]c2c1
Orexin receptor type 2
  Ki: 0.2 nM
[2]
  Ki: 3 nM

## O=C(Nc1ccccc1-n1cccc1)[C@H]1CCCN1C(=O)CSc1nc2ccccc2[nH]1
Orexin receptor type 2
  Ki: 131 nM
[2]
  Ki: 2500 nM

## O=C(Nc1ccccc1)[C@@H]1CCCN1C(=O)CSc1nc2ccccc2[nH]1
Orexin receptor type 2
  Ki: 560 nM
[1]
  Activity: 4050 nM
[2]
  Ki: 1400 nM

## Cn1c(SCC(=O)N2CCC[C@H]2C(=O)Nc2ccccc2-c2ccccc2)nc2ccccc21
[3]
  bioavailability: 11%
[4]
  concentration at 0.5 h: 2370 nM
[5]
  concentration at 0.5 h: 3500 nM
[6]
  concentration at 0.5 h: 43 nM
[7]
  Activity: < 10 µM
[8]
  Activity: < 10 µM
[9]
  Activity: < 10 µM
Rattus norvegicus
  Activity: Dose-dependent effect
Orexin receptor type 2
  Ki: 0.2 nM
[1]
  Activity: 4 nM
[10]
  logP: 3.4
[11]
  clearance: 3.7 mL/min/kg
[12]
  half-life: 18 min

## O=C(Nc1ccccc1Oc1ccccc1)[C@@H]1CCCN1C(=O)CSc1nc2ccccc2[nH]1
Orexin receptor type 2
  Ki: 3 nM
[1]
  Activity: 16 nM
[2]
  Ki: 69 nM

## O=C(Nc1ccccc1-n1cccc1)[C@@H]1CCCN1C(=O)CSc1nc2ccccc2[nH]1
Orexin receptor type 2
  Ki: 1 nM
[1]
  Activity: 6 nM
[2]
  Ki: 28 nM

## O=C(Nc1ccccc1-n1cccc1)[C@@H]1CCCN1C(=O)CSc1nc2ccccc2o1
Orexin receptor type 2
  Ki: 8 nM
[1]
  Activity: 28 nM
[2]
  Ki: 120 nM

## O=C(Nc1cccc(-c2ccccc2)c1)[C@@H]1CCCN1C(=O)CSc1nc2ccccc2[nH]1
Orexin receptor type 2
  Ki: 280 nM
[1]
  Activity: 2640 nM
[2]
  Ki: 500 nM

## O=C(Nc1ccccc1-n1cccc1)[C@@H]1CCCN1C(=O)CSc1nc2ccccc2s1
Orexin receptor type 2
  Ki: 2 nM
[1]
  Activity: 11 nM
[2]
  Ki: 39 nM

## Cn1c(CCC(=O)N2CCC[C@H]2C(=O)Nc2ccccc2-n2cccc2)nc2ccccc21
Orexin receptor type 2
  Ki: 2 nM
[1]
  Activity: 3 nM
[2]
  Ki: 49 nM

## Cc1ccc2[nH]c(SCC(=O)N3CCC[C@H]3C(=O)Nc3ccccc3-n3cccc3)nc2c1
[1]
  Activity: 2 nM

## COc1ccccc1-c1ccccc1NC(=O)[C@@H]1CCCN1C(=O)CCc1nc2ccccc2[nH]1
Orexin receptor type 2
  Ki: 2 nM
[1]
  Activity: 5 nM
[2]
  Ki: 86 nM

## O=C(Nc1ccc(-c2ccccc2)cc1)[C@@H]1CCCN1C(=O)CSc1nc2ccccc2[nH]1
Orexin receptor type 2
  Ki: 11 nM
[1]
  Activity: 143 nM
[2]
  Ki: 2300 nM

## O=C(Nc1ccccc1-c1ccccc1F)[C@@H]1CCCN1C(=O)CCc1nc2ccccc2[nH]1
Orexin receptor type 2
  Ki: 3 nM
[1]
  Activity: 4 nM
[2]
  Ki: 27 nM

## O=C(Nc1ccccc1-n1cccc1)[C@@H]1CCCN1C(=O)CCc1nc2ccccc2[nH]1
[13]
  Activity: 520 nM
Orexin receptor type 2
  Ki: 11 nM
[1]
  Activity: 36 nM
[2]
  Ki: 130 nM

## O=C(Nc1ccccc1-c1ccccc1)[C@@H]1CCCN1C(=O)CSc1nc2ccccc2[nH]1
Orexin receptor type 2
  Ki: 0.6 nM
[1]
  Activity: 7 nM
[2]
  Ki: 10 nM

## Cc1ccc2c(c1)nc(SCC(=O)N1CCC[C@H]1C(=O)Nc1ccccc1-n1cccc1)n2C
Orexin receptor type 2
  Ki: 0.09 nM
[1]
  Activity: 8 nM
[2]
  Ki: 0.7 nM

## Cn1c(SCC(=O)N2CCC[C@H]2C(=O)Nc2ccccc2-n2cccc2)nc2ccccc21
Orexin receptor type 2
  Ki: 0.3 nM
[1]
  Activity: 2 nM
[2]
  Ki: 9 nM

## Cn1c(CCC(=O)N2CCC[C@H]2C(=O)Nc2ccccc2-c2ccccc2)nc2ccccc21
[14]
  Activity: < 10 µM
[15]
  Activity: < 10 µM
Orexin receptor type 2
  Ki: 0.8 nM
[1]
  Activity: 5 nM
[2]
  Ki: 15 nM
[12]
  half-life: 18 min

## Cc1ccc2nc(SCC(=O)N3CCC[C@H]3C(=O)Nc3ccccc3-n3cccc3)n(C)c2c1
Orexin receptor type 2
  Ki: 0.1 nM
[1]
  Activity: 8 nM
[2]
  Ki: 2 nM
